Legend:
[1] = target: T1, Avi-KRAS G12D (1-169) GppNHp/RAF1 RBD-3xFLAG (52-151) (Homo sapiens, UniProt P01116, G12D); experiment: Raf1-KRAS G12D-GppNHP disruption HTRF assay (Biological Example 1); type: binding
T1 construct: Avi-KRAS G12D (1-169)
Outline: (§1)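 First, protein mix in Tris pH 7.5 buffer with NaCl, MgCl2, BSA, Tween and 10% DMSO is incubated 1 h at room temperature. Next, reagent mix is added and incubated a further 1 h at room temperature. Finally, HTRF is read and activity normalized to DMSO.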

[2] = target: T2, Avi-KRAS G12R (1-169) GppNHp/RAF1 RBD-3xFLAG (52-151) (Homo sapiens, UniProt P01116, G12R); experiment: Raf1-KRAS G12R-GppNHP disruption HTRF assay (Biological Example 1); type: binding
T2 construct: Avi-KRAS G12R (1-169)
Outline: as §1

[3] = target: T3, Avi-KRAS G12V (1-169) GppNHp/RAF1 RBD-3xFLAG (52-151) (Homo sapiens, UniProt P01116, G12V); experiment: Raf1-KRAS G12V-GppNHP disruption HTRF assay (Biological Example 1); type: binding
T3 construct: Avi-KRAS G12V (1-169)
Outline: as §1

[4] = target: T4, Avi-KRAS WT (1-169) GppNHp/RAF1 RBD-3xFLAG (52-151) (Homo sapiens, UniProt P01116); experiment: Raf1-KRAS WT-GppNHP disruption HTRF assay (Biological Example 1); type: binding
T4 construct: Avi-KRAS WT (1-169)
Outline: as §1

GP2d cells (KRAS G12D) = experiment: Cell-based pERK HTRF assay in GP2d cell (Biological Example 2); conditions: GP2d (KRAS G12D) cells, pERK HTRF
Outline: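 Cells grown in DMEM with 10% FBS were exposed to compound for 60 min at 0.25% DMSO, using a 9-point half-log series starting at 1 μM or 100 nM. Lysates were then mixed with d2 and Eu cryptate antibodies for 4–24 h at room temperature, and pERK was read by HTRF.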

SW620 cells (KRAS G12V) = experiment: Cell-based pERK HTRF assay in SW620 cell (Biological Example 4); conditions: pERK HTRF
Outline: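 SW620 cells were treated for 4 h with compound in a 9-point half-log series from 1 μM top (0.25% DMSO), then lysed. Phospho-ERK was detected by HTRF with d2 and Eu cryptate antibodies after 4–24 h at room temperature, read at 615 nm emission.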

[5] = KRAS G12D, GppNHp-loaded, class symbols
[6] = KRAS G12R, GppNHp-loaded, class symbols
[7] = KRAS G12V, GppNHp-loaded, class symbols
[8] = KRAS WT, GppNHp-loaded, class symbols
[9] = Homo sapiens, SW-620, SW620 (KRAS G12V) cells, class symbols
[10] = Homo sapiens, SW-620, SW620 (KRAS G12V) cells
[11] = KRAS G12D, GppNHp-loaded, Table 11
[12] = KRAS G12R, GppNHp-loaded, Table 11
[13] = KRAS G12V, GppNHp-loaded, Table 11
[14] = KRAS WT, GppNHp-loaded, Table 11

T4 sequence (P01116 1-169 isoform P01116-2): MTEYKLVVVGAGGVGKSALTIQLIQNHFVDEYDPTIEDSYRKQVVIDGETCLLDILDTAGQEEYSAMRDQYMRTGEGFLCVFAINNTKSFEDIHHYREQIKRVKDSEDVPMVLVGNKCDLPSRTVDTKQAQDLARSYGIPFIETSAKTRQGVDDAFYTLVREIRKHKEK
T1 sequence (P01116 1-169 isoform P01116-2 G12D): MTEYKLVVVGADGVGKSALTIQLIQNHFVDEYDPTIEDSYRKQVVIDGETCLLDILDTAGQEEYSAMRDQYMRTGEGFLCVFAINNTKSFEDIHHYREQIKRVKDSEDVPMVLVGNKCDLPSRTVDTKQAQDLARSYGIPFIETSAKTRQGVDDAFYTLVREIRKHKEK
T2 sequence (P01116 1-169 isoform P01116-2 G12R): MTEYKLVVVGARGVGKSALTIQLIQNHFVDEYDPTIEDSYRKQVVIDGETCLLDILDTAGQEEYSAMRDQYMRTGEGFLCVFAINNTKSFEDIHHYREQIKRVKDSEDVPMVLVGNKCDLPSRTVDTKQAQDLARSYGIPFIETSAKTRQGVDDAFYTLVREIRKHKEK
T3 sequence (P01116 1-169 isoform P01116-2 G12V): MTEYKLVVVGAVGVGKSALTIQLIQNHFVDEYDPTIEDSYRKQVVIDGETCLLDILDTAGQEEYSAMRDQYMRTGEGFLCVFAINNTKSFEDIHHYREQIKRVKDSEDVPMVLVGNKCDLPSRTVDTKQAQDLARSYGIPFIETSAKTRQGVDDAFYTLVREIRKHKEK

Compound	IC50 ([1]; KRAS G12D-GppNHp/RAF1 RBD HTRF)	IC50 ([2]; KRAS G12R-GppNHp/RAF1 RBD HTRF)	IC50 ([3]; KRAS G12V-GppNHp/RAF1 RBD HTRF)	IC50 ([4]; KRAS WT-GppNHp/RAF1 RBD HTRF)	IC50 (GP2d cells (KRAS G12D); GP2d)	IC50 (SW620 cells (KRAS G12V); [10])	IC50 [1, 11]	IC50 [2, 12]	IC50 [3, 13]	IC50 [4, 14]	also measured
CO[C@@H](C)C(=O)N1CC[C@H](N(c2nc(OC[C@@]34CCCN3C[C@H](F)C4)nc3c(F)c(-c4ccc(F)c5sc(N)c(C#N)c45)c(C(F)(F)F)cc23)C2CC2)C1 (atropisomer, axis not shown) [Compound 811]	–	–	–	–	–	–	–	–	–	–	IC50 [1, 5]: < 0.1 µM; IC50 [2, 6]: 0.1 to 1 µM; IC50 [3, 7]: 0.1 to 1 µM; IC50 [4, 8]: 0.1 to 1 µM; IC50 (GP2d cells (KRAS G12D); GP2d, class symbols): < 0.1 µM; IC50 (SW620 cells (KRAS G12V); [9]): < 0.1 µM
Cc1nc(OC[C@@]23CCCN2C[C@H](F)C3)nc2c(F)c(-c3ccc(F)c4sc(N)c(C#N)c34)c(C(F)(F)F)cc12 [Compound 318, 2-amino-7-fluoro-4-[8-fluoro-2-[[(2R,8S)-2-fluoro-1,2,3,5,6,7-hexahydropyrrolizin-8-yl]methoxy]-4-methyl-6-(trifluoromethyl)quinazolin-7-yl]benzothiophene-3-carbonitrile]	0.1 to 1 µM	0.1 to 1 µM	1 to 10 µM	1 to 10 µM	< 0.1 µM	0.1 to 1 µM	–	–	–	–	–
CCN(c1nc(OC[C@@]23CCCN2C[C@H](F)C3)nc2c(F)c(-c3ccc(F)c4sc(N)c(C#N)c34)c(C(F)(F)F)cc12)[C@H]1CCN(C(=O)OCC2CN(C(C)=O)C2)C1 (atropisomer, axis not shown) [Compound 640]	–	–	–	–	–	–	–	–	–	–	IC50 [1, 5]: < 0.1 µM; IC50 [2, 6]: < 0.1 µM; IC50 [3, 7]: < 0.1 µM; IC50 [4, 8]: < 0.1 µM; IC50 (GP2d cells (KRAS G12D); GP2d, class symbols): < 0.1 µM; IC50 (SW620 cells (KRAS G12V); [9]): < 0.1 µM
CC1(O)CCN(c2nc(OC[C@@]34CCCN3C[C@H](F)C4)nc3c(F)c(-c4ccc(F)c5sc(N)c(C#N)c45)c(C(F)(F)F)cc23)CC1 [Compound 228]	–	–	–	–	0.1 to 1 µM	0.1 to 1 µM	0.1 to 1 µM	1 to 10 µM	1 to 10 µM	0.1 to 1 µM	–
CCC(=O)N1CC[C@@](C)(N(C)c2nc(OC[C@@]34CCCN3C[C@H](F)C4)nc3c(F)c(-c4ccc(F)c5sc(N)c(C#N)c45)c(C(F)(F)F)cc23)[C@H]1C [Compound 343]	1 to 10 µM	> 10 µM	1 to 10 µM	1 to 10 µM	0.1 to 1 µM	0.1 to 1 µM	–	–	–	–	–
N#Cc1c(N)sc2c(F)ccc(-c3c(C(F)(F)F)cc4c(N5CC6CC(C5)O6)nc(OC[C@@]56CCCN5C[C@H](F)C6)nc4c3F)c12 (single isomer, unassigned) [Compound 276]	–	–	–	–	–	–	1 to 10 µM	1 to 10 µM	> 10 µM	1 to 10 µM	IC50 (GP2d cells (KRAS G12D)): > 1 µM; IC50 (SW620 cells (KRAS G12V); SW620 (KRAS G12V) cells): 0.1 to 1 µM
CC(C)C(=O)N1CC[C@@](C)(N(C)c2nc(OC[C@@]34CCCN3C[C@H](F)C4)nc3c(F)c(-c4ccc(F)c5sc(N)c(C#N)c45)c(C(F)(F)F)cc23)[C@H]1C [Compound 345]	1 to 10 µM	> 10 µM	> 10 µM	1 to 10 µM	0.1 to 1 µM	0.1 to 1 µM	–	–	–	–	–
CCN(c1nc(OC[C@@]23CCCN2C[C@H](F)C3)nc2c(F)c(-c3ccc(F)c4sc(N)c(C#N)c34)c(C(F)(F)F)cc12)[C@H]1CC(=O)N(C)C1 [Compound 482]	0.1 to 1 µM	0.1 to 1 µM	0.1 to 1 µM	0.1 to 1 µM	< 0.1 µM	< 0.1 µM	–	–	–	–	–
CS(=O)(=O)C1CN(c2nc(OC[C@@]34CCCN3C[C@H](F)C4)nc3c(F)c(-c4ccc(F)c5sc(N)c(C#N)c45)c(C(F)(F)F)cc23)C1 [Compound 223]	–	–	–	–	0.1 to 1 µM	0.1 to 1 µM	0.1 to 1 µM	1 to 10 µM	1 to 10 µM	0.1 to 1 µM	–
N#CCC[C@H]1CCN(c2nc(OC[C@@]34CCCN3C[C@H](F)C4)nc3c(F)c(-c4ccc(F)c5sc(N)c(C#N)c45)c(C(F)(F)F)cc23)C1 [Compound 214]	–	–	–	–	0.1 to 1 µM	0.1 to 1 µM	1 to 10 µM	1 to 10 µM	1 to 10 µM	1 to 10 µM	–
CCN(c1nc(OC[C@@]23CCCN2C[C@H](F)C3)nc2c(F)c(-c3ccc(F)c4sc(N)c(C#N)c34)c(C(F)(F)F)cc12)[C@H]1CCN(C(=O)N(C)C2COC2)C1 (atropisomer, axis not shown) [Compound 598]	–	–	–	–	–	–	–	–	–	–	IC50 [1, 5]: < 0.1 µM; IC50 [2, 6]: < 0.1 µM; IC50 [3, 7]: < 0.1 µM; IC50 [4, 8]: < 0.1 µM; IC50 (GP2d cells (KRAS G12D); GP2d, class symbols): < 0.1 µM; IC50 (SW620 cells (KRAS G12V); [9]): < 0.1 µM
N#Cc1c(N)sc2c(F)ccc(-c3c(C(F)(F)F)cc4c(N5C[C@@H]6CC[C@H]5CN6C(=O)C5CC5)nc(OC[C@@]56CCCN5C[C@H](F)C6)nc4c3F)c12 [Compound 456]	0.1 to 1 µM	0.1 to 1 µM	0.1 to 1 µM	0.1 to 1 µM	< 0.1 µM	< 0.1 µM	–	–	–	–	–
CC(=O)N1C[C@@H]2OCCN(c3nc(OC[C@@]45CCCN4C[C@H](F)C5)nc4c(F)c(-c5ccc(F)c6sc(N)c(C#N)c56)c(C(F)(F)F)cc34)[C@@H]2C1 [Compound 481]	0.1 to 1 µM	0.1 to 1 µM	1 to 10 µM	0.1 to 1 µM	< 0.1 µM	0.1 to 1 µM	–	–	–	–	–
CC(C)C(=O)N1C[C@@H](N(C)c2nc(OC[C@@]34CCCN3C[C@H](F)C4)nc3c(F)c(-c4ccc(F)c5sc(N)c(C#N)c45)c(C(F)(F)F)cc23)C[C@H]1C [Compound 448]	0.1 to 1 µM	1 to 10 µM	1 to 10 µM	0.1 to 1 µM	< 0.1 µM	0.1 to 1 µM	–	–	–	–	–
CCC(=O)N1CC[C@H](N(CC)c2nc(OC[C@@]34CCCN3C[C@H](F)C4)nc3c(F)c(-c4ccc(F)c5sc(N)c(C#N)c45)c(C(F)(F)F)cc23)C1 [Compound 349]	< 0.1 µM	< 0.1 µM	0.1 to 1 µM	0.1 to 1 µM	< 0.1 µM	< 0.1 µM	–	–	–	–	–
COCCN(C)c1nc(OC[C@@]23CCCN2C[C@H](F)C3)nc2c(F)c(-c3ccc(F)c4sc(N)c(C#N)c34)c(C(F)(F)F)cc12 [Compound 167]	–	–	–	–	< 0.1 µM	< 0.1 µM	0.1 to 1 µM	0.1 to 1 µM	0.1 to 1 µM	0.1 to 1 µM	–

Source: patent publication US20260042764A1, “COMPOSITIONS AND METHODS FOR INHIBITION OF KRAS” (TheRas, Inc., priority 2022, published 2026)
